Molecular target: T1, HPK1 kinase (aa1-346, Life Technologies) (Homo sapiens, UniProt Q92918)
T1 construct: HPK1 kinase (aa1-346, Life Technologies); purchased Life Technologies
T1 sequence (Q92918 1-346): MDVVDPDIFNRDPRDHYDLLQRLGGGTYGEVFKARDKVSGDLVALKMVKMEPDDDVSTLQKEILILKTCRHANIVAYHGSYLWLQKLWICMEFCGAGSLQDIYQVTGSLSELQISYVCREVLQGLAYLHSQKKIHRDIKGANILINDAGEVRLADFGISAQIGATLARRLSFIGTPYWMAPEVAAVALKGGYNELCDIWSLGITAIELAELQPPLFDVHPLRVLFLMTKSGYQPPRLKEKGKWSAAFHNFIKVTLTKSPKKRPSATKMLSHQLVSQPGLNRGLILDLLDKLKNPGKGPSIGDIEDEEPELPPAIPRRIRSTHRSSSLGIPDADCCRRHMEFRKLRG
Experiment: HPK Kinase Activity Assay at 1 mM ATP (TR-FRET)
Type: biochemical
Conditions: HPK1 kinase 40 nM, 0.5 μM STK1 substrate, read-out: Enzymatic activity IC50
Method: HPK Kinase Activity Assay at 1 mM ATP
Compounds disclosed herein were tested for inhibition of HPK1 kinase (aa1-346, Life Technologies) activity in assays based on the time-resolved fluorescence-resonance energy transfer (TR-FRET) methodology. The assays were carried out in 384-well low volume black plates in a reaction mixture containing HPK1 kinase (40 nM), 1 mM ATP, 0.5 μM STK1 substrate and 0-10 μM compound in buffer containing 50 mM HEPES, 0.01% BSA, 0.1 mM Orthovanadate, 10 mM MgCl2, 1 mM DTT, pH=7.0, 0.005% Tween-20. The kinase was incubated with the compounds disclosed herein or DMSO for 60 minutes at room temperature and the reaction was initiated by the addition of ATP and STK1 substrate. After reaction at room temperature for 120 minutes, an equal volume of stop/detection solution was added according to the manufacture's instruction (CisBio). The stop/detection solution contained STK Antibody-Cryptate and XL665-conjugated streptavidin in Detection Buffer. The TR-FRET signals (ratio of fluorescence emission at 665 nm over emission at 620 nm with excitation at 337 nm wavelength) were recorded on a PHERAstar FS plate reader (BMG Labtech). Phosphorylation of STK1 substrate led to the binding of STK Antibody-Cryptate to the biotinylated STK1 substrate, which places fluorescent donor (Eu^3+ crypate) in close proximity to the accepter (Streptavidin-XL665), thus resulting in a high degree of fluorescence resonance energy transfer. The inhibition of HPK1 in presence of increasing concentrations of compounds was calculated based on the ratio of fluorescence at 665 nm to that at 620 nm. The IC50 for each compound was derived from fitting the data to the four-parameter logistic equation by Graphpad Prism software.

Row | IC50 | SMILES
1 | 52 nM | Cc1cc(-c2cnc3[nH]cc(-c4ccc(C(=O)N(C)CC(C)(C)O)cc4)c3n2)cc2c1N1CCN(C)C[C@H]1CC2 [Example 12A, (R)-4-(2-(3,10-dimethyl-2,3,4,4a,5,6-hexahydro-1H-pyrazino[1,2-a]quinolin-8-yl)-5H-pyrrolo[2,3-b]pyrazin-7-yl)-N-(2-hydroxy-2-methylpropyl)-N-methylbenzamide]
2 | 52 nM | Cc1cc(-c2cnc3[nH]cc(-c4ccc(C(=O)N(C)CC(C)(C)O)cc4)c3n2)cc2c1N1CCN(C)C[C@@H]1CC2 [Example 12B, (S)-4-(2-(3,10-dimethyl-2,3,4,4a,5,6-hexahydro-1H-pyrazino[1,2-a]quinolin-8-yl)-5H-pyrrolo[2,3-b]pyrazin-7-yl)-N-(2-hydroxy-2-methylpropyl)-N-methylbenzamide]
3 | 101 nM | Cc1cc(-c2c[nH]c3ncc(-c4cc(C)c5c(c4)CC[C@@H]4CN(C)CCN54)nc23)ccc1C(=O)N(C)CC(C)(C)O [Example 13A, (R)-4-(2-(3,10-dimethyl-2,3,4,4a,5,6-hexahydro-1H-pyrazino[1,2-a]quinolin-8-yl)-5H-pyrrolo[2,3-b]pyrazin-7-yl)-N-(2-hydroxy-2-methylpropyl)-N,2-dimethylbenzamide]
4 | 96 nM | Cc1cc(-c2c[nH]c3ncc(-c4cc(C)c5c(c4)CC[C@H]4CN(C)CCN54)nc23)ccc1C(=O)N(C)CC(C)(C)O [Example 13B, (S)-4-(2-(3,10-dimethyl-2,3,4,4a,5,6-hexahydro-1H-pyrazino[1,2-a]quinolin-8-yl)-5H-pyrrolo[2,3-b]pyrazin-7-yl)-N-(2-hydroxy-2-methylpropyl)-N,2-dimethylbenzamide]
